In experiment [1] the test system is Brain microvascular endothelial cells (BMECs) and brain microvascular smooth muscle cells (BMVSMCs). Kind of experiment: In vitro angiogenesis assay, BMEC/BMVSMC co-culture on matrigel. The settings on record: 0.1 mg/L, 48 h. Format: cell-based, mouse. The procedure: First, mouse brain microvascular pellets were obtained by differential centrifugation. Brain microvascular endothelial cells (BMECs) and brain microvascular smooth muscle cells (BMVSMCs) were isolated by digestion with collagenase II, respectively, and cultured in a cell incubator with 5% CO2 at 37°C . Cells at passages 3-6 in good growth condition and logarithmic growth phase were selected for the in vitro angiogenesis assay.
One night before the experiment, the high-concentration matrigel was transferred from a -20°C or -80°C refrigerator to a 4°C refrigerator and allowed to thaw slowly overnight in the 4°C refrigerator. Pipette tips required for the formal experiment were sterilized in advance and pre-cooled in a 4°C refrigerator for subsequent use.
On the day of the experiment, the matrigel was added to a 96-well plate 1 h in advance and placed in a 37°C cell incubator until it solidified. Subsequently, the cells were washed 2 times with 2 mL of PBS buffer, followed by digestion with 0.25% trypsin to obtain EC and VSMC pellets, respectively, and cell counting was performed. A uniform cell suspension containing 5×10^3 BMVSMCs and 1×10^3 BMECs per well was then seeded into the 96-well plate pre-coated with the matrigel, and cultured in a 37°C, 5% CO2 cell incubator for 3 days.
During the culture period, tube formation was observed daily. The medium was changed on day 4, followed by treatment with the polypeptide of the invention at 0.1 mg/L or VEGFA at 10/15/20 ng/L for 48 h, respectively.
On day 5, the cell nuclei and live cells were labeled with Hoechst 33342 and Calcein AM, respectively. High-content brightfield and fluorescence imaging were then performed using a high-content screening system. Finally, angiogenesis in each treatment group was analyzed using the Angiogenesis Analyzer plugin for ImageJ, and statistical analysis was carried out with GraphPad Prism 10.

The subject of experiment [2] is neural stem cell line C17.2. Kind of experiment: Proliferation of neural stem cell line C17.2, BrdU, high-content imaging. As to conditions: 100 µg/mL, 48 h; for Proliferation-promoting results: percentage of BrdU-positive cells, significance vs blank control group; for number of BrdU positive cells: vs blank control group, in words. Format: cell-based. The method, then:
• (1) C17.2 cells were seeded in 96-well plates at a concentration of 1500 cells/100 µL/well. After overnight culture for cell adherence, the cells were treated with drugs; • (2) Drug treatment was applied. The final concentration of the polypeptide of the invention was 100 µg/mL. Meanwhile, butylphthalide (NBP, 5 µM) was set as the positive control. The cells were cultured in the incubator for another 48 h; • (3) BrdU was added at 44 h of treatment to a final concentration of 10 µM. Immunofluorescence staining was performed 4 h later, and the percentage of BrdU-positive cells was statistically analyzed using a high-content cell imaging analysis system.

The test system of experiment [3] is primary neural stem cells (NSCs). Kind of experiment: Differentiation of primary neural stem cells, βIII-tubulin fluorescence and Neurite Outgrowth Assay. Format: cell-based, SD rats. The settings on record: 100 µg/mL; for neurite outgrowth (total neurite length, maximum neurite length, neurite terminals, neurite initiation points) / Number of neurite terminals / Total neurite length / mean fluorescence intensity of the neuronal marker protein βIII-tubulin / Longest neurite length / Neurite initiation points (branches) / Average fluorescence intensity: 4 days; for neurite outgrowth (total neurite length, maximum neurite length, neurite terminals, neurite initiation points): Neurite Outgrowth Assay; for neurite outgrowth (total neurite length, maximum neurite length, neurite terminals, neurite initiation points) / mean fluorescence intensity of the neuronal marker protein βIII-tubulin: in words; for Number of neurite terminals / Total neurite length / Longest neurite length / Neurite initiation points (branches) / Average fluorescence intensity: significance vs blank control group; for mean fluorescence intensity of the neuronal marker protein βIII-tubulin: vs blank control group; for Average fluorescence intensity: βIII-tubulin. The method, then: This part of the experiment requires feeding male and female rats in advance, then extracting hippocampal neural stem cells from newborn SD rats within 24 h of birth, culturing them to P3 for identification, and then using them for experiments. • (1) Extraction and culture of primary neural stem cells (NSCs) • (2) NSCs that have been passaged to P3 and have good viability were seeded in differentiation medium (2% FBS+DMEM/F12 1:1 medium) in 48-well plates with a cell concentration of 5×10^4 cells/mL per well. After overnight culture for cell adherence, the cells were treated with drugs; • (3) Drug treatment was applied. The final concentration of the polypeptide of the invention was 100 µg/mL. Meanwhile, nerve growth factor (NGF, 50 ng/mL) was set as the positive control, and the cells were cultured in the incubator for another 4 days; • (4) Immunofluorescence staining (primary antibody βIII-tubulin) was performed after 4 days of treatment. The average fluorescence intensity of βIII-tubulin was analyzed and the Neurite Outgrowth Assay was performed using a high-content cell imaging analysis system.

Setting [4] is: significance vs blank control group.

Where a SMILES comes first, the peptide text is derived from it. Where no end group is shown, it is not given here. [ ]: non-standard residue; d: D form.

Take “H-ALPAPGTL-NH2 [Compound 10, H-Ala-Leu-Pro-Ala-Pro-Gly-Thr-Leu-NH2]”: the Cell count entry in experiment [1] (setting [4]) is “* (*p < 0.05)”. In experiment [1] (vs normal group, in words), the cell proliferation result is given as “only promoted cell proliferation”. In experiment [2], the Proliferation-promoting results is “** (**p < 0.01)” and the “number of BrdU positive cells” value is recorded as “significant increase”. In addition, in experiment [3], the “neurite outgrowth (total neurite length, maximum neurite length, neurite terminals, neurite initiation points)” value (“neurite outgrowth” for short) was “tendency to promote neurite outgrowth”; the “Number of neurite terminals” value is recorded as “** (**p < 0.01)”; the Total neurite length entry is recorded as “* (*p < 0.05)”; the “mean fluorescence intensity of the neuronal marker protein βIII-tubulin” value (“mean fluorescence intensity” below) was “tendency to enhance”.
On to `C[C@H](NC(=O)[C@@H]1CCCN1)C(=O)N1CCC[C@H]1C(=O)NCC(=O)O` [Compound 36, H-Pro-Ala-Pro-Gly-OH] (H-PAPG-OH), for which, in experiment [1] (setting [4]), the Branch length result is reported as “** (**p < 0.01)” and the Cell count result is “** (**p < 0.01)”. In experiment [1] (vs normal group, in words), the Branch length result is reported as “promoting effects” and the number of junctions result is given as “no significant effects”. Also, in experiment [2], the Proliferation-promoting results was “** (**p < 0.01)” and the “number of BrdU positive cells” value is “significant increase”. In addition, in experiment [3], the “neurite outgrowth” value was “tendency to promote neurite outgrowth”; the “Number of neurite terminals” value was “* (*p < 0.05)”; the Total neurite length result was “* (*p < 0.05)”.
Turning to `CC(C)C[C@H](NC(=O)[C@@H](NC(=O)CNC(=O)[C@H]1CCCN1C(=O)[C@H](C)NC(=O)[C@@H]1CCCN1C(=O)[C@H](CC(C)C)NC(=O)[C@H](C)N)[C@@H](C)O)C(=O)O` [Compound 6, H-Ala-Leu-Pro-Ala-D-Pro-Gly-Thr-Leu-OH] (H-ALPA[dP]GTL-OH), in experiment [1] (setting [4]), the Branch length result is given as “* (*p < 0.05)” and the Number of intersections result is given as “** (**p < 0.01)”. Besides, in experiment [1] (vs normal group, in words), the angiogenesis-promoting effects result is on record as “exhibited angiogenesis-promoting effects”. Also, the Proliferation-promoting results in experiment [2] is recorded as “* (*p < 0.05)”. In addition, in experiment [3], the “neurite outgrowth” value was “tendency to promote neurite outgrowth”; the Longest neurite length result is “* (*p < 0.05)”; the “Neurite initiation points (branches)” value is “* (*p < 0.05)”; the Total neurite length result was “* (*p < 0.05)”.
Consider `CC(C)C[C@H](NC(=O)[C@@H](NC(=O)CNC(=O)[C@@H]1CCCN1C(=O)[C@H](C)NC(=O)[C@@H]1CCCN1C(=O)[C@@H](CC(C)C)NC(=O)[C@H](C)N)[C@@H](C)O)C(=O)O` [Compound 3, H-Ala-D-Leu-Pro-Ala-Pro-Gly-Thr-Leu-OH] (H-A[dL]PAPGTL-OH), for which, in experiment [1] (setting [4]), the Cell count result was “* (*p < 0.05)”. In addition, the cell proliferation entry in experiment [1] (vs normal group, in words) is listed as “only promoted cell proliferation”. The “number of BrdU positive cells” value in experiment [2] is on record as “tendency to increase”. Further, in experiment [3], the Longest neurite length entry was “** (**p < 0.01)”, the “Neurite initiation points (branches)” value is “* (*p < 0.05)”, the “Number of neurite terminals” value is reported as “* (*p < 0.05)” and the Total neurite length entry was “** (**p < 0.01)”. Further, in experiment [3], the “mean fluorescence intensity” value is recorded as “significant increase” and the Average fluorescence intensity entry was “* (*p < 0.05)”. The “differentiation of NSCs into neuronal cells” value in experiment [3] (conclusion based on the results of the two analytical methods) is on record as “promote the differentiation of NSCs into neuronal cells with stable effects”.
For the compound `CC(C)C[C@H](NC(=O)[C@H](NC(=O)CNC(=O)[C@@H]1CCCN1C(=O)[C@H](C)NC(=O)[C@@H]1CCCN1C(=O)[C@H](CC(C)C)NC(=O)[C@H](C)N)[C@H](C)O)C(=O)O` [Compound 7, H-Ala-Leu-Pro-Ala-Pro-Gly-D-Thr-Leu-OH] (H-ALPAPG[dT]L-OH), in experiment [1] (setting [4]), the Cell count entry is given as “** (**p < 0.01)”. Further, the cell proliferation entry in experiment [1] (vs normal group, in words) was “only promoted cell proliferation”. The Proliferation-promoting results in experiment [2] is on record as “** (**p < 0.01)”. Moreover, in experiment [3], the “neurite outgrowth” value was “tendency to promote neurite outgrowth”; the Longest neurite length entry is given as “* (*p < 0.05)”; the Total neurite length result is listed as “* (*p < 0.05)”.
In the case of “H-ALPAAGTL-OH [Compound 17, H-Ala-Leu-Pro-Ala-Ala-Gly-Thr-Leu-OH]”, the Cell count entry in experiment [1] (setting [4]) is “** (**p < 0.01)”. For the same compound, the cell proliferation entry in experiment [1] (vs normal group, in words) is recorded as “only promoted cell proliferation”. In addition, the Proliferation-promoting results in experiment [2] is “** (**p < 0.01)”. Besides, in experiment [3], the “mean fluorescence intensity” value is given as “tendency to enhance”.
With “ALPAPG [Compound 40, H-Ala-Leu-Pro-Ala-Pro-Gly-Oh]”, the Cell count entry in experiment [1] (setting [4]) is “* (*p < 0.05)”. The cell proliferation entry in experiment [1] (vs normal group, in words) is given as “only promoted cell proliferation”. Further, in experiment [2], the Proliferation-promoting results was “* (*p < 0.05)” and the “number of BrdU positive cells” value is listed as “significant increase”. In addition, in experiment [3], the “mean fluorescence intensity” value was “significant increase” and the Average fluorescence intensity result is recorded as “* (*p < 0.05)”.
Turning to “H-ALPAGGTL-OH [Compound 15, H-Ala-Leu-Pro-Ala-Gly-Gly-Thr-Leu-OH]”, the Number of intersections result in experiment [1] (setting [4]) is recorded as “* (*p < 0.05)”. For the same compound, in experiment [1] (vs normal group, in words), the Branch length entry is recorded as “no significant effects” and the number of junctions result is recorded as “promoting effects”. Further, the Proliferation-promoting results in experiment [2] is recorded as “* (*p < 0.05)”. In experiment [3], the “neurite outgrowth” value is on record as “tendency to promote neurite outgrowth” and the Longest neurite length entry is given as “* (*p < 0.05)”.

Source of the values: patent EP4806904A1, “POLYPEPTIDE AND USE THEREOF” (Sichuan Gooddoctor Panxi Pharmaceutical Co. Ltd, priority 2023, dated 2026).
